{
  "source": "patent US20040235717A1",
  "about": "“Suppression of androgen receptor transactivation through new pathways to ar and ar coactivators and repressors” (priority 2001, published 2004)",
  "key": {"[1]": {"system": "AR transactivation", "assay": "AR transactivation, MMTV-CAT reporter in DU145 cells transfected with AR", "format": "cell-based, human", "source_text": "250. To dissect the divergent effects of IL-6 in prostate tumor growth, Qui, Y. et al., Nature 393, 83-85 (1998); Hobisch, A. et al., Cancer Res. 58, 4640-4645 (1998); Ritchie, C. K. et al., Endocrinology 138, 1145-1150 (1997), the potential influences of IL-6 on the transactivation of AR, the master regulator of the prostate tumor growth were studied. Chang, C. et al., Science 240, 324.326 (1988); Chang, C. et al., Crit. Rev. Eukaryotic Gene Expression 5, 97-125 (1995). Because IL-6 has two major signal cascades, mitogen-activated protein kinase (MAPK) and phosphatidylinositol 3-kinase (PI3K), Qui, Y. et al., Nature 393, 83-85 (1998); Qui, Y. et al., Proc. Natl. Acad. Sci. USA 95, 3644-3649 (1998), inhibitors were applied to specifically block one of these two IL-6 signal pathways. DU145 cells were transfected for 24 h with AR and MMTV-CAT reporter gene. After transfection, the cells were serum starved for 24 h. Next, 20 μM LY294002, P098059 or vehicle was added to serum-free medium 30 min prior to IL-6 treatment. […] The cells were then harvested and AR transactivation was measured by CAT activity. […] Vlahos, C. J. et al., J. Biol. Chem. 269, 5241-5148 (1994). […] Alessi, D. R. et al., J. Biol. Chem. 270, 27489-27494 (1995).\n251. IL-6's effect on PI3K activity was tested. After serum starvation for 24 h, LNCaP, PC-3 or DU145 cells were treated with 50 μg/ml IL-6 for 30 minutes. The cells were then harvested. PI3K activity was measured by using phosphatidylinositol (PT) as a substrate. […] The transactivation was measured by CAT activity.\n252. Focus then turned to the two major downstream effectors of PI3K: a serine/threonine kinase (Akt/PKB) and a ribosomal S6 kinase (p70S6k). Franke, T. F. et al., Cell 88,435-437 (1997). […] The transactivation activity was determined after 24 h transfection.\n262. The DU145 and PC-3 cells were maintained in Dulbecco's Minimum Essential Medium (DMEM) containing penicillin (25 μg/m1), streptomycin (25 μg/ml), and 5% fetal calf serum (FCS). The LNCaP cells were maintained in RPMI-1640 with 10% FCS. Transfections were performed using the calcium phosphate precipitation method, as previously described. Yeh, S. et al., Proc. Natl. Acad. Sci. USA 93, 5517-5521(1996).\n277. The DU145 and PC-3 cells were maintained in Dulbecco's Minimum Essential Medium (DMEM) containing penicillin (25 U/ml), streptomycin (25 μg/ml), and 5% fetal calf serum (FCS). The LNCaP cells were maintained in RPMI-1640-10% FCS. Transfections were performed using the calcium phosphate precipitation method in PC-3 and DU145, as previously described. Yeh, S., Lin, H. K., Kang, H. Y., Thin, T. H., Lin, M. F. & Chang, C. (1999) Proc Natl Acad Sci U S A 96, 5458-63. LNCaP cells were transfected using SuperFect™ according to standard procedures (Qiagen)."}, "[2]": {"system": "AR protein stability", "assay": "Pulse-chase labeling of AR in COS-1 cells", "format": "cell-based", "conditions": "LY294002 20 μM", "experimental": "30. […] The cells were harvested for Western blot analysis. […] Western blot analysis was performed and AR and PTEN were detected by AR antibody or PTEN antibody. (C) PTEN-C1 cells were treated with 4 μg/ml Dox in 10% CDS media for 48 h. Total RNA was prepared and Northern blot analysis was performed using [^32P]-dCTP-labeled AR (aa, 1-389) as a probe. (D) COS-1 cells were transfected with AR along with pCDNA3 or PTEN in 10% CDS media for 16 h. […] The cell extracts were immunoprecipitated with AR antibody and subjected to SDS-PAGE followed by autoradiography. Data were from three identical results. (E) COS-1 cells were transfected with AR along with pCDNA3 or dAkt in 10% CDS media for 16 h, pulsed with [^35S]-methionine for 45 min, and then harvested at different chase times as indicated. LY294002 (20 μM) was added 2 h before pulsing with [^35S]-methionine.\n317. Pulse-chase experiments were performed as described (Lo et al. (1999) Nat Cell Biol 1, 472-8) with some modifications. Briefly, COS-1 cells were transfected with pSG5-AR in combination with pCDNA3 or pCDNA3 PTEN in 10% CDS media for […]. Cells were grown under serum starvation conditions for 2 h in methionine/cysteine-deficient medium, and then the cells were pulsed for 45 min with 200 μCi/ml [^35S]-methionine/cysteine (NEN). […]"}, "[3]": {"system": "estrogen receptor (ER) transactivation", "assay": "ER transactivation, ERE-luc in PC-3 cells transfected with ERα", "format": "cell-based, human", "conditions": "10 nM E2", "experimental": "26. […] The cells were harvested and assayed for luciferase activity using MMTV-luc as a reporter. […] The cells were harvested for Northern blot analysis. […] The cells were harvested and assayed for the luciferase activity. […] (E) The PC-3 cells were transfected with ERα along with plasmids, as indicated, using ERE-luc as a reporter for 16 h, followed by 10 nM E2 treatment for another 16 h. The cells were harvested for luciferase assay. Data are means±s.d. from three independent experiments.\n312. […] The cells were lysed and the luciferase activity was detected by the dual luciferase assay according to standard procedures."}},
  "note": "Entries after “also recorded” stand apart in the source; their conditions may differ.",
  "data": [
    {"substance": "dAkt: dominant-negative Akt, a kinase deficient mutant, K179A", "values": [
      {"measurement": "Effect on DHT-induced AR transactivation (CAT activity)", "setting": "[1]; presence of androgen", "result": "induce AR transactivation in a dose-dependent manner; also recorded: induce wtAR transactivation in a dose-dependent manner"},
      {"measurement": "Effect on p110/p110*-repressed AR transactivation", "setting": "[1]; rapamycin 20 nM 30 min prior to 1 nM DHT, dAkt co-transfected", "result": "reversed the p110-repressed AR transactivation; also recorded: reversed this p110*-repressed AR transactivation"},
      {"measurement": "AR degradation", "setting": "[2]", "result": "did not promote AR degradation"},
      {"measurement": "Effect on ER transactivation", "setting": "[3]", "result": "suppressed ER transactivation"}
    ]}
  ]
}
